Measured values taken from patent US10770169B2, “Method of providing a treatment to a subject based on a dynamic pathway map” (THE REGENTS OF THE UNIVERSITY OF CALIFORNIA, priority 2010, dated 2020).
Read-outs that look alike come from different tables or passages of the source.

What was measured:
[1] = system: luminal, basal, claudin-low and ERBB2AMP breast cancer cell lines; assay: Associations of clinically relevant subtypes and response (non-parametric ANOVA or t-test on GI50 ranks); type: cell-based, human; settings: Table 6; most sensitive subtype, FDR p<0.20
Method in brief: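 Significance was set at FDR p<0.20 after combining p-values across three test sets. Subtype–response associations came from rank-based non-parametric ANOVA or t-tests on GI50. For three-class comparisons, post-hoc tests of each group against the rest identified the most sensitive group, with FDR correction.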

[2] = system: breast cancer cell lines with aberrant vs normal copy number; assay: Association of recurrent copy number changes and response (t-test on GI50); type: cell-based, human; settings: FDR p<0.2
Method in brief: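 A t-test compared GI50 between cell lines with high amplification at 8q24 (MYC), 11q13 (CCND1) or 20q13 (STK15/AURKA) and lines with low or no amplification, grouped together. Lines whose GI50 equalled the maximum concentration tested were excluded. Compounds with any group under five samples were also excluded.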

[3] = system: panel of 55 breast cancer cell lines; assay: Cell growth inhibition assay (Cell Titer Glo, 72 h, 9 doses; GI50, TGI, LC50); type: cell-based, human; settings: Homo sapiens, read-out: GI50 (converted)
[4] = target: CDK4 (Homo sapiens, UniProt P11802); settings: cited from earlier work
Chain of CDK4 (P11802 whole entry, species assumed): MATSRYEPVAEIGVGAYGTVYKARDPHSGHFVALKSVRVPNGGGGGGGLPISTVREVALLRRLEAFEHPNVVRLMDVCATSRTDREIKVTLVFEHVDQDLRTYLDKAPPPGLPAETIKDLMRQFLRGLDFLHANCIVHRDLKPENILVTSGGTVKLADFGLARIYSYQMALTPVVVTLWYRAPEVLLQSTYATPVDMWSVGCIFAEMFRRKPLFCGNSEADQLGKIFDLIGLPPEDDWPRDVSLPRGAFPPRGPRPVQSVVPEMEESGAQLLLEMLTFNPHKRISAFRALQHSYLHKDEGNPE
Chain of CDK4 (P24385 whole entry partner, species assumed): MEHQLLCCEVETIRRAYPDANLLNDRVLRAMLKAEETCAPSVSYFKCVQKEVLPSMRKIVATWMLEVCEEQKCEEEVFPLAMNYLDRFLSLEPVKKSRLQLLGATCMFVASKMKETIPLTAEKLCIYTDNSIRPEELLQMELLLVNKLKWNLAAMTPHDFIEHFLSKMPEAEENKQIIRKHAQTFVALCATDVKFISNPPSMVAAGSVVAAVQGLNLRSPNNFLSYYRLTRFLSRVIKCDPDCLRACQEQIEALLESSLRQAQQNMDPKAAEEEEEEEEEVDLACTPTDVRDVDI

For `O=C1c2ccccc2-[n+]2ccc3c([nH]c4ccccc43)c21` [Fascaplysin], the Subtype specificity [1] was “Luminal”, the “association of response with homozygous deletion at 9p21 (CDKN2A)” value [2] was “associated with response” and the GI50 ([3]; 600MPE cell line, censored GI50 values) was 288 nM. For the same compound, the GI50 ([3]; AU565, AU565 cell line, censored GI50 values) was 120 nM, the GI50 ([3]; AU565, cell line AU565) was 120 nM and the GI50 ([3]; BT-20, BT20 cell line, censored GI50 values) was 309 nM. For the same compound, the GI50 ([3]; BT-20, cell line BT20) was 309 nM, the GI50 ([3]; BT-474, BT474 cell line, censored GI50 values) was 191 nM and the GI50 ([3]; BT-474, cell line BT474) was 191 nM. The GI50 ([3]; BT-483, BT483 cell line, censored GI50 values) was 66.1 nM, the GI50 ([3]; BT-483, cell line BT483) was 66.1 nM and the GI50 ([3]; BT-549, BT549 cell line, censored GI50 values) was 513 nM. For the same compound, the GI50 ([3]; BT-549, cell line BT549) was 513 nM, the GI50 ([3]; CAMA-1, CAMA1 cell line, censored GI50 values) was 245 nM and the GI50 ([3]; CAMA-1, cell line CAMA1) was 245 nM. For the same compound, the GI50 ([3]; HCC38, HCC38 cell line, censored GI50 values) was 275 nM, the GI50 ([3]; HCC38, cell line HCC38) was 275 nM and the GI50 ([3]; HCC70, HCC70 cell line, censored GI50 values) was 126 nM. For the same compound, the GI50 ([3]; HCC70, cell line HCC70) was 126 nM, the GI50 ([3]; HCC202, HCC202 cell line, censored GI50 values) was 42.7 nM and the GI50 ([3]; HCC202, cell line HCC202) was 42.7 nM. It also gave a GI50 ([3]; HCC1143, HCC1143 cell line, censored GI50 values) of 275 nM, a GI50 ([3]; HCC1143, cell line HCC1143) of 275 nM and a GI50 ([3]; HCC1187, HCC1187 cell line, censored GI50 values) of 15.5 nM. The GI50 ([3]; HCC1187, cell line HCC1187) was 15.5 nM, the GI50 ([3]; HCC1395, HCC1395 cell line, censored GI50 values) was 324 nM and the GI50 ([3]; HCC1395, cell line HCC1395) was 324 nM. For the same compound, the GI50 ([3]; HCC1419, HCC1419 cell line, censored GI50 values) was 263 nM, the GI50 ([3]; HCC1419, cell line HCC1419) was 263 nM and the GI50 ([3]; HCC1428, HCC1428 cell line, censored GI50 values) was 37.2 nM. It also gave a GI50 ([3]; HCC1428, cell line HCC1428) of 37.2 nM, a GI50 ([3]; HCC1500, HCC1500 cell line, censored GI50 values) of 224 nM and a GI50 ([3]; HCC1500, cell line HCC1500) of 224 nM. For the same compound, the GI50 ([3]; HCC1806, HCC1806 cell line, censored GI50 values) was 257 nM, the GI50 ([3]; HCC1806, cell line HCC1806) was 257 nM and the GI50 ([3]; HCC1937, HCC1937 cell line, censored GI50 values) was 389 nM. The GI50 ([3]; HCC1937, cell line HCC1937) was 389 nM, the GI50 ([3]; HCC1954, HCC1954 cell line, censored GI50 values) was 269 nM and the GI50 ([3]; HCC1954, cell line HCC1954) was 269 nM. It also gave a GI50 ([3]; HCC2185 cell line, censored GI50 values) of 126 nM, a GI50 ([3]; HCC3153 cell line, censored GI50 values) of 347 nM and a GI50 ([3]; LY2 cell line, censored GI50 values) of 7.94 nM. For the same compound, the GI50 ([3]; MCF7, MCF7 cell line, censored GI50 values) was 191 nM, the GI50 ([3]; MCF7, cell line MCF7) was 191 nM and the GI50 ([3]; MDA-MB-134-VI, MDAMB134VI cell line, censored GI50 values) was 224 nM. For the same compound, the GI50 ([3]; MDA-MB-157, MDAMB157 cell line, censored GI50 values) was 170 nM, the GI50 ([3]; MDA-MB-157, cell line MDAMB157) was 170 nM and the GI50 ([3]; MDA-MB-175-VII, MDAMB175VII cell line, censored GI50 values) was 191 nM. For the same compound, the GI50 ([3]; MDA-MB-231, MDAMB231 cell line, censored GI50 values) was 251 nM, the GI50 ([3]; MDA-MB-231, cell line MDAMB231) was 251 nM and the GI50 ([3]; MDA-MB-361, MDAMB361 cell line, censored GI50 values) was 81.3 nM. For the same compound, the GI50 ([3]; MDA-MB-361, cell line MDAMB361) was 81.3 nM, the GI50 ([3]; MDA-MB-415, MDAMB415 cell line, censored GI50 values) was 60.3 nM and the GI50 ([3]; MDA-MB-415, cell line MDAMB415) was 60.3 nM. For the same compound, the GI50 ([3]; MDA-MB-436, MDAMB436 cell line, censored GI50 values) was 417 nM, the GI50 ([3]; MDA-MB-436, cell line MDAMB436) was 417 nM and the GI50 ([3]; MDA-MB-453, MDAMB453 cell line, censored GI50 values) was 87.1 nM. For the same compound, the GI50 ([3]; MDA-MB-453, cell line MDAMB453) was 87.1 nM, the GI50 ([3]; MDA-MB-468, MDAMB468 cell line, censored GI50 values) was 77.6 nM and the GI50 ([3]; MDA-MB-468, cell line MDAMB468) was 77.6 nM. The GI50 ([3]; SK-BR-3, SKBR3 cell line, censored GI50 values) was 224 nM, the GI50 ([3]; SK-BR-3, cell line SKBR3) was 224 nM and the GI50 ([3]; SUM52PE, SUM52PE cell line, censored GI50 values) was 182 nM. For the same compound, the GI50 ([3]; SUM52PE, cell line SUM52PE) was 182 nM, the GI50 ([3]; SUM149PT, SUM149PT cell line, censored GI50 values) was 398 nM and the GI50 ([3]; SUM149PT, cell line SUM149PT) was 398 nM. The GI50 ([3]; SUM185PE, SUM185PE cell line, censored GI50 values) was 55 nM, the GI50 ([3]; SUM185PE, cell line SUM185PE) was 55 nM and the GI50 ([3]; SUM225CWN, SUM225CWN cell line, censored GI50 values) was 67.6 nM. It also gave a GI50 ([3]; SUM225CWN, cell line SUM225CWN) of 67.6 nM, a GI50 ([3]; SUM1315MO2, SUM1315MO2 cell line, censored GI50 values) of 417 nM and a GI50 ([3]; SUM-159-PT, SUM159PT cell line, censored GI50 values) of 427 nM. It also gave a GI50 ([3]; SUM-159-PT, cell line SUM159PT) of 427 nM, a GI50 ([3]; T47D, T47D cell line, censored GI50 values) of 457 nM and a GI50 ([3]; T47D, cell line T47D) of 457 nM. For the same compound, the GI50 ([3]; UACC-893, UACC893 cell line, censored GI50 values) was 186 nM, the GI50 ([3]; UACC-893, cell line UACC893) was 186 nM and the GI50 ([3]; ZR-75-1, ZR751 cell line, censored GI50 values) was 355 nM. The GI50 ([3]; ZR-75-1, cell line ZR751) was 355 nM, the GI50 ([3]; ZR-75B, ZR75B cell line, censored GI50 values) was 407 nM and the GI50 ([3]; ZR-75B, cell line ZR75B) was 407 nM. The GI50 ([3]; cell line 600MPE) was 288 nM, the GI50 ([3]; cell line HCC2185) was 126 nM and the GI50 ([3]; cell line HCC3153) was 347 nM. It also gave a GI50 ([3]; cell line LY2) of 7.94 nM, a GI50 ([3]; cell line MDAMB134V) of 224 nM and a GI50 ([3]; cell line MDAMB175V) of 191 nM. For the same compound, the GI50 ([3]; cell line SUM1315MO) was 417 nM and the “inhibition of CDK4” value [4] was “inhibited CDK4”.
